What was measured:
Details in all cases: 72 h
U2OS [1] = test: cell viability relative to DMSO; higher = less toxic
Calu-3 [2] = test: as above
Caco-2 [3] = test: as above
Vero E6 [4] = test: as above
HepG2 [5] = test: as above
U2OS [6] = test: relative viability EC50 (midpoint between 100% and the lowest measured viability); higher = less toxic
Calu-3 [7] = test: as above
Caco-2 [8] = test: as above
Vero E6 [9] = test: as above
HepG2 [10] = test: as above
U2OS [11] = test: drug sensitivity score (DSS) for viability; higher = more toxic; extreme values may be limits of the assay
Calu-3 [12] = test: as above
Caco-2 [13] = test: as above
Vero E6 [14] = test: as above
HepG2 [15] = test: as above

Compound	cell viability (U2OS [1]; 1 nM) [%]	cell viability (U2OS [1]; 10 nM) [%]	cell viability (U2OS [1]; 100 nM) [%]	cell viability (U2OS [1]; 1000 nM) [%]	cell viability (U2OS [1]; 10000 nM) [%]	cell viability (Calu-3 [2]; 1 nM) [%]	cell viability (Calu-3 [2]; 10 nM) [%]	cell viability (Calu-3 [2]; 100 nM) [%]	cell viability (Calu-3 [2]; 1000 nM) [%]	cell viability (Calu-3 [2]; 10000 nM) [%]	cell viability (Caco-2 [3]; 1 nM) [%]	cell viability (Caco-2 [3]; 10 nM) [%]	cell viability (Caco-2 [3]; 100 nM) [%]	cell viability (Caco-2 [3]; 1000 nM) [%]	cell viability (Caco-2 [3]; 10000 nM) [%]	cell viability (Vero E6 [4]; 1 nM) [%]	cell viability (Vero E6 [4]; 10 nM) [%]	cell viability (Vero E6 [4]; 100 nM) [%]	cell viability (Vero E6 [4]; 1000 nM) [%]	cell viability (Vero E6 [4]; 10000 nM) [%]	cell viability (HepG2 [5]; 1 nM) [%]	cell viability (HepG2 [5]; 10 nM) [%]	cell viability (HepG2 [5]; 100 nM) [%]	cell viability (HepG2 [5]; 1000 nM) [%]	cell viability (HepG2 [5]; 10000 nM) [%]	relative viability EC50 (U2OS [6]) [µM]	relative viability EC50 (Calu-3 [7]) [µM]	relative viability EC50 (Caco-2 [8]) [µM]	relative viability EC50 (Vero E6 [9]) [µM]	relative viability EC50 (HepG2 [10]) [µM]	drug sensitivity score (U2OS [11])	drug sensitivity score (Calu-3 [12])	drug sensitivity score (Caco-2 [13])	drug sensitivity score (Vero E6 [14])	drug sensitivity score (HepG2 [15])
O=C(O)[C@H](O)[C@@H](O)[C@H](O)[C@H](O)CO [sodium-gluconate]	96.9	97	98.2	99.8	103	106	96.6	108	109	105	104	101	104	113	92.2	96.9	107	102	93.5	105	79.7	108	94.3	92.7	91	> 10	> 10	> 10	> 10	> 10	0	0	0	0	0
Oc1cc(Cl)ccc1Oc1ccc(Cl)cc1Cl [triclosan]	98.7	96.5	98.3	97.9	99.3	97.7	92.3	106	101	107	105	102	94.5	95.6	126	97	104	106	112	95.3	105	99.3	102	93.8	113	> 10	> 10	> 10	> 10	> 10	0	0	0	0	0
Nc1ccc2cc3ccc(N)cc3nc2c1 [proflavine-hemisulfate]	–	–	–	–	–	89.2	95.9	103	103	62.6	100	88.4	99	105	49.3	94.6	100	90.7	89.4	35.8	96.5	103	92.7	76.2	2	–	–	3.6	1.9	1.57	–	1.6	2.3	5.3	9.1
CSCC[C@H](NC(=O)[C@H](Cc1ccccc1)NC(=O)CNC(=O)CNC(=O)[C@@H](N)Cc1ccc(O)cc1)C(=O)O [metenkephalin]	103	97.1	102	102	102	102	99.7	105	94.3	101	94.7	94.9	100	96.4	97.2	93.8	96.5	96.7	98.4	108	96.6	99	91	115	107	> 10	> 10	> 10	> 10	> 10	0	0	0	0	0
Cc1ccc(-c2ccc(C)cn2)nc1 [abametapir]	98.8	96.3	97.8	96.6	99	106	92.1	95.6	92.6	96.3	95.9	86.7	79.8	87	93.3	103	104	101	93.4	105	119	110	100	103	98.9	> 10	> 10	> 10	> 10	> 10	0	0	0	0	0
CC(=O)C1=C(O)C=C2Oc3c(C(C)=O)c(O)c(C)c(O)c3C2(C)C1=O (stereo not drawn) [usniacin-(+)]	98.9	75.3	95.8	83.5	95.5	107	99.4	95.2	113	96.4	104	101	91.1	95.6	108	101	95.4	100	98.9	101	111	97.1	102	110	94	> 10	> 10	> 10	> 10	> 10	0	0	0	0	0
CN(CCCN1c2ccccc2CCc2ccccc21)CC(=O)c1ccc(Cl)cc1 [lofepramine]	–	–	–	–	–	–	–	–	–	–	103	107	101	94.9	92	99	102	97.2	101	101	105	105	102	96.9	106	–	–	> 10	> 10	> 10	–	–	0	0	0
C[C@H](N)[C@H](O)c1ccc(O)c(O)c1 [levonordefrin]	–	–	–	–	–	102	96.8	98	104	100	97.8	89.7	96.8	88.6	93.8	109	109	103	108	91.9	105	105	97	96.8	93.9	–	> 10	> 10	> 10	> 10	–	0	0	0	0
CCc1c(O)cc(O)c(C(=O)c2ccc(OCCN3CCOCC3)c(OC)c2)c1CC(=O)N(CCOC)CCOC [KW-2478]	98.8	95.3	100	98.3	47.5	104	110	100	76.9	53.4	110	96.3	101	77.6	46.5	98.6	103	96.1	99.1	100	108	103	109	69.1	5.8	2.93	–	1.14	> 10	1.33	3	5.4	5.9	0	9.6
COc1ccc2[nH]c3c(-c4cccc5ccccc45)nccc3c2c1 [SP-141]	110	109	106	53.9	21.3	98.7	106	105	67.4	67.2	91.8	103	99.2	60	39.5	95.5	101	97.8	39.1	29.2	102	101	95.9	47.8	42.8	0.873	–	0.741	0.453	0.332	9.9	5.3	8.1	11.5	10.2
Cn1cnc([N+](=O)[O-])c1Sc1ncnc2[nH]cnc12 [azathioprine]	104	97.9	96.2	71.9	78.9	94.8	93.6	93.1	94.4	98.7	110	86.8	93	92.7	92.9	94.2	96.6	94.8	96	82.7	95.2	89.7	93	75.1	20	–	> 10	> 10	> 10	1.46	5.2	0	0	0.7	7.7
Cc1ccc2c(c1)=C(c1ccccc1)C(C1=NN(C(=O)CCC(=O)O)C(c3ccc(Br)cc3)C1)C(=O)N=2 (centres undefined) [DQP-1105]	102	110	97.4	100	94.9	–	–	–	–	–	94.1	97.7	97.2	90.2	96.1	95.9	100	100	97.7	96.9	106	105	97.9	95.2	105	> 10	–	> 10	> 10	> 10	0	–	0	0	0
C/C(=C\CNc1ncnc2[nH]cnc12)CO [zeatin]	96.8	99.4	95.4	98.9	102	–	–	–	–	–	94.1	104	88.1	92.5	101	95.7	99.4	97	100	107	94.7	92.9	108	102	110	> 10	–	> 10	> 10	> 10	0	–	0	0	0
CC12CCC(C(Br)C1=O)C2(C)C (centres undefined) [3-bromocamphor]	99.6	95.1	100	97.1	101	–	–	–	–	–	88.5	94.3	96.6	95.2	94.8	91.8	102	92.2	103	104	94.1	87.3	94.3	101	104	> 10	–	> 10	> 10	> 10	0	–	0	0	0
CC(C)C[C@H](NC(=O)[C@@H]1CCCN1)C(=O)NCC(N)=O [prolylleucylglycinamide]	–	–	–	–	–	97.1	96.3	99.4	106	104	95	95.1	98.1	96	96.6	102	105	102	103	98.2	109	107	107	99.2	107	–	> 10	> 10	> 10	> 10	–	0	0	0	0
CNC(=O)CN1CCC(Oc2cc3c(Nc4cccc(Cl)c4F)ncnc3cc2OC)CC1 [AZD8931]	95.4	94.8	93.6	89.6	87.9	109	80.5	60.7	33.8	22.5	96.5	93.7	90.2	77.7	65.5	97.2	97.7	78.3	58.5	42.1	106	95.7	87.8	95.2	85.2	> 10	0.0843	–	0.233	> 10	0.1	18.2	4.6	10.2	0.5
